{
  "source": "patent US11860169B2",
  "about": "“Method of treating and prognosing scoliotic patient subgroups” (Chu Sainte-Justine, priority 2013, dated 2024)",
  "key": {"[1]": {"system": "Gi-mediated cell signaling", "assay": "Gi-mediated cellular response measured by cellular impedance (CellKey system) in osteoblasts treated with OPN, HA or antibodies", "type": "cell-based, human", "details": "LPA stimulation", "method": "Gi-mediated cellular response in the presence of increasing amounts of rOPN was measured by cellular impedance using the CellKey™ system (Akoume et al., 2010; and Akoume et al., 2013 (J. Vis. Exp.)) in functional groups FG1, FG2 and FG3;\nOsteoblasts from healthy subjects and AIS patients of each endophenotype (FG1, FG2 and FG3) were treated with vehicle, OPN (500 ng/ml) or HA (10 μM). The Gi-mediated cellular response in the presence of increasing amounts of LPA was measured by cellular impedance using the CellKey™ system;\n(§1) CD44 activity (A) or expression (B) was inhibited in osteoblasts from control, FG1, FG2 and FG3 patients and the effect on OPN-dependent inhibition of Gi-mediated cell signaling was monitored using the CellKey™ system following stimulation with LPA.\nAntibodies against integrins β1, β3 and β5 reverse the effect of OPN on Gi-mediated response in FG2 and FG3 subjects only, while blockade of CD44 further potentiates the effect of OPN.\n(§2) The variation in Gi-mediated cell signaling in response to OPN in each functional group (FG1, FG2 and FG3) was studied. FIGS. 20 and 21 show the response to OPN (increasing doses) on osteoblasts isolated from patients classified into functional groups FG1, FG2 and FG3. […] Furthermore, MC3T3-E1 cells were used to check the effect of the knockdown of OPN and its receptors. MC3T3-E1 osteoblasts cells were transiently transfected in serum-free medium, using Lipofectamine™ RNAiMAX reagent (Invitrogen) according to the manufacturers instructions and functional experiments were performed 48 h post transfection."}, "[2]": {"system": "Gi-mediated cell signaling", "assay": "Gi-mediated cellular response measured by cellular impedance (CellKey system) after siRNA knockdown in osteoblasts", "type": "cell-based", "details": "for Effect of OPN knock down on Gi-mediated transduction: 48 h post transfection; for Effect of siRNA on OPN-dependent change of Gi-mediated cell signaling: in presence of OPN", "method": "Gi-mediated cellular response in the presence siRNAs against rOPN was measured by cellular impedance using the CellKey™ system (Akoume et al., 2010; and Akoume et al., 2013 (J. Vis. Exp.)) in functional groups FG1, FG2 and FG3;\nas §1\nSiRNAs against integrins β1, β3 and β5 reversed the effect of OPN on Gi-mediated response while blockade of CD44 further potentiated the effect of OPN.\nas §2\nMC3T3-E1 cells were also used to check the effect of the knockdown of OPN's receptors by RNAi. Experimental conditions were as described for Example 5. The sequence of RNA oligonucleotides used for the knockdowns are: integrin β1 (CCU MG UCA GCA GUA GGA ACA UUA U (SEQ ID NO: 15)), integrin β3 (CCUCCAGCUCAUUGUUGAUGCUUAU (SEQ ID NO: 16)); integrin β5 ([…], HSS-105572, Life technologies (SEQ ID NO: 17), […], HSS-105573, Life technologies (SEQ ID NO: 18); and […], HSS-179984, life technologies, (SEQ ID NO: 19)) and CD44 (GM CM GGA GUC GUC AGA MC UCC A (SEQ ID NO: 20))."}, "[3]": {"details": "osteoblasts from FG1 AIS subjects, increasing rOPN, or OPN 500 ng/ml or HA 10 μM"}, "[4]": {"details": "osteoblasts from FG2 AIS subjects, increasing rOPN, or OPN 500 ng/ml or HA 10 μM"}, "[5]": {"details": "osteoblasts from FG3 AIS subjects, increasing rOPN, or OPN 500 ng/ml or HA 10 μM"}, "[6]": {"details": "osteoblasts from control (healthy) subjects, OPN 500 ng/ml or HA 10 μM"}, "[7]": {"details": "osteoblasts from control subjects"}},
  "note": "Entries after “also recorded” stand apart in the source; their conditions may differ.",
  "data": [
    {"substance": "Hyaluronic acid [HA]", "values": [
      {"measurement": "Effect on Gi-mediated cellular response", "setting": "[1]; [3]", "result": "increases the Gi-mediated cellular response"},
      {"measurement": "Effect on Gi-mediated cellular response", "setting": "[1]; [4]", "result": "decreases the Gi-mediated response"},
      {"measurement": "Effect on Gi-mediated cellular response", "setting": "[1]; [5]", "result": "decreases the Gi-mediated response"},
      {"measurement": "Effect on Gi-mediated cellular response", "setting": "[1]; [6]", "result": "decreases the Gi-mediated response"}
    ]},
    {"substance": "OPN siRNA: siRNA for knock down of OPN expression: CCA CAG CCA CM GCA GUC CAG AUU A (CCACAGCCACAAGCAGUCCAGAUUA; listed as RNA, chemistry not fully specified)", "values": [
      {"measurement": "Effect of OPN knock down on Gi-mediated transduction", "setting": "[2]; FG1", "result": "tends to decrease the response"},
      {"measurement": "Effect of OPN knock down on Gi-mediated transduction", "setting": "[2]; FG2", "result": "increases Gi-mediated transduction"},
      {"measurement": "Effect of OPN knock down on Gi-mediated transduction", "setting": "[2]; FG3", "result": "increases Gi-mediated transduction"}
    ]},
    {"substance": "OPN: osteopontin, encoded by SPP1 (Gene ID 6696); recombinant rOPN added to osteoblasts", "values": [
      {"measurement": "Effect on Gi-mediated cellular response", "setting": "[1]; [3]", "result": "enhances Gi signaling"},
      {"measurement": "Effect on Gi-mediated cellular response", "setting": "[1]; [4]", "result": "aggravates the impairment"},
      {"measurement": "Effect on Gi-mediated cellular response", "setting": "[1]; [5]", "result": "aggravates the impairment"},
      {"measurement": "Effect on Gi-mediated cellular response", "setting": "[1]; [6]", "result": "decreases the Gi-mediated response"}
    ]},
    {"substance": "siRNA against CD44: RNA oligonucleotide for CD44 knockdown: GM CM GGA GUC GUC AGA MC UCC A (GAACAAGGAGUCGUCAGAAACUCCA; listed as RNA, chemistry not fully specified)", "values": [
      {"measurement": "Effect of siRNA on OPN-dependent change of Gi-mediated cell signaling", "setting": "[2]; osteoblasts from FG1 subjects", "result": "further increased Gi-mediated cell signaling"},
      {"measurement": "Effect of siRNA on OPN-dependent change of Gi-mediated cell signaling", "setting": "[2]; osteoblasts from FG2 subjects", "result": "further decreased Gi-mediated cell signaling; also recorded: further reduced Gi-mediated signaling"},
      {"measurement": "Effect of siRNA on OPN-dependent change of Gi-mediated cell signaling", "setting": "[2]; osteoblasts from FG3 subjects", "result": "further decreased Gi-mediated cell signaling; also recorded: further reduced Gi-mediated signaling"},
      {"measurement": "Effect of siRNA on OPN-dependent change of Gi-mediated cell signaling", "setting": "[2]; [7]", "result": "further decreased Gi-mediated cell signaling; also recorded: further reduced Gi-mediated signaling"}
    ]},
    {"substance": "siRNA against integrin β1: RNA oligonucleotide for integrin β1 knockdown: CCU MG UCA GCA GUA GGA ACA UUA U (CCUAAGUCAGCAGUAGGAACAUUAU; listed as RNA, chemistry not fully specified)", "values": [
      {"measurement": "Effect of siRNA on OPN-dependent change of Gi-mediated cell signaling", "setting": "[2]; osteoblasts from FG1 subjects", "result": "reduced (blocked) the increase in Gi-mediated response induced by OPN"},
      {"measurement": "Effect of siRNA on OPN-dependent change of Gi-mediated cell signaling", "setting": "[2]; osteoblasts from FG2 subjects", "result": "can be reversed"},
      {"measurement": "Effect of siRNA on OPN-dependent change of Gi-mediated cell signaling", "setting": "[2]; osteoblasts from FG3 subjects", "result": "can be reversed"},
      {"measurement": "Effect of siRNA on OPN-dependent change of Gi-mediated cell signaling", "setting": "[2]; [7]", "result": "can be reversed"}
    ]},
    {"substance": "siRNA against integrin β3: RNA oligonucleotide for integrin β3 knockdown: CCUCCAGCUCAUUGUUGAUGCUUAU (CCUCCAGCUCAUUGUUGAUGCUUAU; listed as RNA, chemistry not fully specified)", "values": [
      {"measurement": "Effect of siRNA on OPN-dependent change of Gi-mediated cell signaling", "setting": "[2]; osteoblasts from FG1 subjects", "result": "reduced (blocked) the increase in Gi-mediated response induced by OPN"},
      {"measurement": "Effect of siRNA on OPN-dependent change of Gi-mediated cell signaling", "setting": "[2]; osteoblasts from FG2 subjects", "result": "can be reversed"},
      {"measurement": "Effect of siRNA on OPN-dependent change of Gi-mediated cell signaling", "setting": "[2]; osteoblasts from FG3 subjects", "result": "can be reversed"},
      {"measurement": "Effect of siRNA on OPN-dependent change of Gi-mediated cell signaling", "setting": "[2]; [7]", "result": "can be reversed"}
    ]}
  ]
}
